Like-named read-outs stand apart in the source and are kept apart here. Marks after values point to notes of the source that are not given here.
Assays:
[1] = test system: SARS-CoV-2; assay: microbe, parasite or virus in culture; assay type: cell-based
[2] = test system: HCoV-229E; assay: microbe, parasite or virus in culture; assay type: cell-based; conditions: Human coronavirus 229E, HEL 299, read-out: HCoV-229E EC50
[3] = target: SARS-CoV-2 nsp13 ATPase (Severe acute respiratory syndrome coronavirus 2, UniProt P0DTD1); assay type: biochemical; conditions: for IC50: read-out: helicase ATPase IC50
[4] = test system: HCoV-OC43; assay: microbe, parasite or virus in culture; assay type: cell-based; conditions: Betacoronavirus 1, OC43, HEL 299, read-out: HCoV-OC43 EC50
[5] = target: SARS-CoV-2 nsp12 RdRp (Severe acute respiratory syndrome coronavirus 2, UniProt P0DTD1); assay: SARS-CoV-2 nsp12 RdRp activity, fluorescent-based assay; assay type: biochemical; conditions: in the presence of the highest concentration of tested compound (30 μM); read-out: RdRp percentage of control
[6] = in vitro; conditions: chlorocebus sabaeus
[7] = target: SARS-CoV-2 nsp13 helicase (Severe acute respiratory syndrome coronavirus 2, UniProt P0DTD1); assay: biochemical; assay type: biochemical; conditions: for IC50: SARS-CoV-2 nsp13 helicase-associated activity, read-out: helicase unwinding IC50; for remaining activity at 30 µM: in the presence of the highest concentration of tested compound (30 μM), read-out: helicase unwinding percentage of control
[8] = in vitro; conditions: human
[9] = test system: VeroE6 cells; conditions: uninfected VeroE6 cells, MTS assay; mean ± SD of duplicate experiments
[10] = test system: autophagy (LC3-II puncta) in VeroE6 cells; assay: Autophagy inhibition assay, LC3-II immunofluorescence in VeroE6 cells; assay type: cell-based; conditions: for effect on autophagy (LC3-II accumulation), in words: 10 μM, 4 h, compared to CQ
[11] = Severe acute respiratory syndrome coronavirus 2, […], mean ± SD of duplicate experiments, read-out: Anti-SARS-CoV-2 activity EC50
[12] = SARS-CoV-2 nsp13 ATPase-associated activity
[13] = in the presence of the highest concentration of tested compound (30 μM; 3 μM for SSYA10-001)
[14] = Severe acute respiratory syndrome coronavirus 2, read-out: Anti-SARS-CoV-2 activity EC50, primary screening
[15] = […], mean ± SD of duplicate experiments

| Compound | EC50 [1, 11] [µM] | EC50 [2] [µM] | EC50 [4] [µM] | CC50 [6] [µM] | CC50 [8] [µM] | also measured |
| --- | --- | --- | --- | --- | --- | --- |
| CCCOc1ccc(-c2cc(OCc3ccccn3)c3ccccc3n2)cc1 [Compound 1e] | > 100 | – | – | – | – | – |
| CCCOc1ccc(-c2cc(OCCN3CCc4cc(OC)c(OC)cc4C3)c3c(OC)cc(OC)cc3n2)cc1 [Compound 6g] | 8.8 ± 5.6 | 2.9 ± 0.05 | 1.5 ± 0.1 | > 100 | – | IC50 [3, 12]: > 30 µM; helicase ATPase percentage of control [3, 13]: 90%; remaining activity at 30 µM [5]: 62%; IC50 [7]: 0.42 ± 0.23 µM |
| CCCOc1ccc(-c2cc(OCCN(CC)CC)c3c(OC)ccc(OC)c3n2)cc1 [Compound 7a] | 4.6 ± 0.2 | 0.7 ± 0.3 | 2 ± 0.2 | 24.6 ± 0.1 | 9.9 ± 0.8 | – |
| CCCOc1ccc(-c2cc(OCCCN(C)C)c3cc(OC)ccc3n2)cc1 [Compound 3b] | > 100 | – | – | – | – | – |
| CCCOc1ccc(-c2cc(OCCN3CCCC3)c3c(OC)cc(OC)cc3n2)cc1 [Compound 6j] | > 100 | – | – | 16.1 ± 17 | – | – |
| CCCOc1ccc(-c2cc(OC3CC4CCN3CC4)c3ccccc3n2)cc1 (stereo not drawn) [Compound 1d] | > 100 | – | – | – | – | – |
| CCCOc1ccc(-c2cc(OCCN3CCc4cc(OC)c(OC)cc4C3)c3ccccc3n2)cc1 [Compound 1g] | > 100 | – | – | – | – | – |
| CCCOc1ccc(-c2cc(OCCN(CC)CC)c3cc(OC)c(OC)cc3n2)cc1 [Compound 8a] | 5.1 ± 1.4 | 1.8 ± 0.4 | 1.9 ± 0.4 | 70.3 ± 23.7 | 9.2 ± 0.1 | – |
| NC(=O)c1ccc(Oc2ccc(C(N)=O)cc2)cc1 [OUL-355] | – | – | – | – | – | EC50 ([1]; read-out: Anti-SARS-CoV-2 activity EC50, primary screening): > 100 µM |
| CCCOc1ccc(-c2cc(OCCN3CCCC3)c3c(OC)ccc(OC)c3n2)cc1 [Compound 7j] | 11.3 ± 2.1 | 0.6 ± 0.3 | 1.8 ± 0.7 | 89.8 ± 2.8 | 8.7 ± 0.8 | – |
| C=CCn1c(S)nnc1CSc1ccccc1[N+](=O)[O-] [SSYA10-001, reference compound] | – | – | – | – | – | helicase ATPase percentage of control [3]: >3 (90%) ^d; IC50 [3]: > 3 µM |
| CCCOc1ccc(-c2cc(OCCN(CC)CC)c3ccccc3n2)cc1 [Compound 1a] | 6.5 ± 0.05 | – | – | 21.2 ± 4.2 | – | EC50 [1, 14]: 6 µM |
| CCCOc1ccc(-c2cc(OCCN(CC)CC)c3c(OC)cccc3n2)cc1 [Compound 2a] | > 100 | – | – | – | – | – |
| CCCOc1ccc(-c2cc(OCCN3CCc4cc(OC)c(OC)cc4C3)c3ccc(OC)cc3n2)cc1 [Compound 4g] | > 40 | – | – | – | – | – |
| CCCOc1ccc(-c2cc(OCCN3CCN(Cc4ccccc4)CC3)c3cc(OC)cc(OC)c3n2)cc1 [Compound 9f] | > 100 | – | – | > 100 | – | VeroE6 cells CC50 [9]: lacked cytotoxicity |
| CCCOc1ccc(-c2cc(OCCCN(C)C)c3ccccc3n2)cc1 [Compound 1b] | > 100 | – | – | – | – | – |
| CCCOc1ccc(-c2cc(OCCN3CCN(Cc4ccccc4)CC3)c3c(OC)cc(OC)cc3n2)cc1 [Compound 6f] | 7.9 ± 5.6 | 2.2 ± 0.7 | 1.9 ± 0.2 | > 100 | 35.6 ± 0.2 | IC50 [3, 12]: > 30 µM; helicase ATPase percentage of control [3, 13]: 96%; remaining activity at 30 µM [5]: 100%; VeroE6 cells CC50 [9]: lacked cytotoxicity; IC50 [7]: > 30 µM; remaining activity at 30 µM [7]: 55% |
| CCCOc1ccc(-c2cc(OCCN3CCCCC3)c3c(OC)ccc(OC)c3n2)cc1 [Compound 7k] | 2.7 ± 1.9 | 9.4 ± 3.6 | 7.7 ± 3.3 | 23.8 ± 5.7 | 95.3 ± 3.3 | IC50 [3, 12]: > 30 µM; helicase ATPase percentage of control [3, 13]: 100%; remaining activity at 30 µM [5]: 100%; IC50 [7]: 1.41 ± 0.64 µM |
| N#C[C@@]1(c2ccc3c(N)ncnn23)O[C@H](CO)[C@@H](O)[C@H]1O [GS-441524, reference compound] | 0.7 ± 0.07 | 0.9 ± 0.1 | – | – | > 100 | – |
| CCCOc1ccc(-c2cc(OCCN3CCCC3)c3cccc(OC)c3n2)cc1 [Compound 5j] | > 100 | – | – | 30.8 ± 0.1 | – | – |
| CCCOc1ccc(-c2cc(OCCN3Cc4ccccc4C3)c3c(OC)cc(OC)cc3n2)cc1 [Compound 6o, 4-[2-(1,3-Dihydro-2H-isoindol-2-yl)ethoxy]-5,7-dimethoxy-2-(4-propoxyphenyl)quinoline] | > 100 | – | – | > 100 | – | Anti-SARS-CoV-2 activity EC50 [1, 15]: devoid of any activity |
| CCN(CC)CCOc1cc(-c2ccccc2)nc2ccccc12 [Compound 12a] | > 100 | – | – | 64.7 ± 29.8 | – | Anti-SARS-CoV-2 activity EC50 [1, 15]: loss of activity |

| Compound | EC50 [1, 11] [µM] | EC50 [2] [µM] | EC50 [4] [µM] | CC50 [6] [µM] | CC50 [8] [µM] | also measured |
| --- | --- | --- | --- | --- | --- | --- |
| CCCOc1ccc(-c2cc(OCCN3CCCC3)c3cc(OC)c(OC)cc3n2)cc1 [Compound 8j] | 9.6 ± 2.2 | – | – | 12.9 ± 4.8 | – | – |
| c1ccc(-c2cc(OCCN3CCCCC3)c3ccccc3n2)nc1 [Compound 14k] | > 100 | – | – | – | – | Anti-SARS-CoV-2 activity EC50 [1, 15]: loss of activity |
| CCCOc1ccc(-c2cc(OCCN3CCc4cc(OC)c(OC)cc4C3)c3cccc(OC)c3n2)cc1 [Compound 5g] | > 100 | – | – | > 100 | – | Anti-SARS-CoV-2 activity EC50 [1, 15]: devoid of antiviral activity; effect on autophagy (LC3-II accumulation), in words [10]: minimal effect on the autophagy |
| COc1cc(O)c2c(=O)cc(-c3ccc(OCCCN4CCN(C)CC4)c(N)c3)n(C)c2c1 [WRNA10] | – | – | – | 40 | – | EC50 [1, 14]: 10 µM |
| CCCOc1ccc(-c2cc(OCCN3CCc4ccccc4C3)c3c(OC)cc(OC)cc3n2)cc1 [Compound 6n, 4-[2-(3,4-Dihydroisoquinolin-2(1H)-yl)ethoxy]-5,7-dimethoxy-2-(4-propoxyphenyl)quinoline] | > 100 | – | – | > 100 | – | Anti-SARS-CoV-2 activity EC50 [1, 15]: devoid of any activity |
| CCCOc1ccc(-c2cc(OCCN(Cc3ccccc3)Cc3ccccc3)c3ccccc3n2)cc1 [Compound 1c] | > 100 | – | – | – | – | – |
| CCCOc1ccc(-c2cc(OCCN3CCN(Cc4ccccc4)CC3)c3ccccc3n2)cc1 [Compound 1f] | 11.9 ± 5.5 | 61.3 ± 32.2 | 92.3 ± 11 | > 100 | > 100 | VeroE6 cells CC50 [9]: lacked cytotoxicity |
| CCCOc1ccc(-c2cc(OCCN(CC)CC)c3cc(OC)cc(OC)c3n2)cc1 [Compound 9a] | 13 ± 10 | 3.5 ± 2.7 | 2.2 ± 0.5 | > 100 | 43.5 ± 5.6 | – |
| CCCOc1ccc(-c2cc(OCCN3CCNCC3)c3cccc(OC)c3n2)cc1 [Compound 5i] | 7.1 ± 4.2 | 0.3 ± 0.05 | 1.7 ± 0.2 | 30.3 ± 0.8 | 8 ± 1.3 | – |
| CCCOc1ccc(-c2cc(OCCN3CCc4cc(OC)c(OC)cc4C3)c3cc(OC)cc(OC)c3n2)cc1 [Compound 9g] | > 100 | – | – | > 100 | – | Anti-SARS-CoV-2 activity EC50 [1, 15]: devoid of antiviral activity; effect on autophagy (LC3-II accumulation), in words [10]: minimal effect on the autophagy |
| CCCOc1ccc(-c2cc(OCCN3CCc4cc(OC)ccc4C3)c3c(OC)cc(OC)cc3n2)cc1 [Compound 6m, 5,7-Dimethoxy-4-[2-(6-methoxy-3,4-dihydroisoquinolin-2(1H)-yl)ethoxy]-2-(4-propoxyphenyl)quinoline] | > 100 | – | – | > 100 | – | Anti-SARS-CoV-2 activity EC50 [1, 15]: devoid of any activity |
| CCCOc1ccc(-c2cc(OCCN3CCCC3)c3cc(OC)cc(OC)c3n2)cc1 [Compound 9j] | 5.9 ± 2.4 | 40 ± 20.8 | 22.7 ± 2.8 | > 100 | > 100 | IC50 [3, 12]: > 30 µM; helicase ATPase percentage of control [3, 13]: 100%; remaining activity at 30 µM [5]: 100%; IC50 [7]: > 30 µM; remaining activity at 30 µM [7]: 57% |
| CCCOc1ccc(-c2cc(OCCN(CC)CC)c3cccc(OC)c3n2)cc1 [Compound 5a] | 9.1 ± 3.05 | 1.3 ± 0.9 | 0.6 ± 0.1 | > 100 | 10.4 ± 0.8 | – |
| CCCOc1ccc(-c2cc(OCCn3cccc3)c3ccccc3n2)cc1 [Compound 1h] | > 100 | – | – | – | – | – |
| CCCOc1ccc(-c2cc(OCCN(CC)CC)c3c(OC)cc(OC)cc3n2)cc1 [Compound 6a] | > 100 | – | – | 6.71 ± 3.5 | – | – |
| CCCOc1ccc(-c2cc(C(=O)NCCN(CC)CC)c3ccccc3n2)cc1 [Compound 11l] | > 100 | – | – | – | – | Anti-SARS-CoV-2 activity EC50 [1, 15]: loss of activity |
| CCCOc1ccc(-c2cc(O)c3ccccc3n2)cc1 [Compound 1] | > 100 | – | – | – | – | Anti-SARS-CoV-2 activity EC50, primary screening [1]: completely inactive |
| CCCOc1ccc(-c2cc(OCCN(CC)CC)c3c(OC)c(OC)c(OC)cc3n2)cc1 [Compound 10a] | 8.3 ± 1.8 | – | – | 23.8 ± 8.3 | – | – |
| CCN(CC)CCCC(C)Nc1ccnc2cc(Cl)ccc12 (stereo not drawn) [Chloroquine, chloroquine, reference compound] | – | – | < 0.8 | 83.4 ± 4.2 | 33.6 ± 1.3 | increase in the intensity of the cytoplasmic LC3 puncta ([10]; 10 μM for 4 h): 9 fold |
| CCN(CC)CCOc1cc(-c2ccc(Cl)s2)nc2ccccc12 [Compound 13a] | > 100 | – | – | – | – | Anti-SARS-CoV-2 activity EC50 [1, 15]: loss of activity |
| CCCOc1ccc(-c2cc(OCCN3CCCCC3)c3cc(OC)c(OC)cc3n2)cc1 [Compound 8k] | 2.6 ± 1.4 | 0.2 ± 0.2 | 1.6 ± 0.2 | 11.1 ± 1.3 | 12.3 ± 1.1 | – |

Reference: paper PMC9088073, “Discovery of 2-Phenylquinolines with Broad-Spectrum Anti-coronavirus Activity” (ACS Medicinal Chemistry Letters, 2022)
